Source: patent US5102885A, “Imidazoquinoxaline compounds and their use” (Novo Nordisk A/S, priority 1989, dated 1992)

These molecules were tested on benzodiazepine receptors (assay: In vivo displacement of 3H-flunitrazepam specific binding to brain benzodiazepine receptors in mice). Conditions: test substance i.p. 15 min before 3H-FNM i.v. (4 μCi), sacrificed 20 min after 3H-FNM, forebrain.
Parameters: species or system mice (female, NMR)
Description: The pharmaceutical properties of the compounds of the invention can be illustrated by determining their capability for displacing radioactive labelled flunitrazepam from benzodiazepine receptors.
The displacement activity of the compounds of the invention may be found by determining the ED50 value. The ED50 value represents the dose (mg/kg) of a test substance which causes the specific binding of flunitrazepam to benzodiazepine receptors in a living brain to be reduced to 50% of the control value.
Such an in vivo test is carried out as follows:
Twenty minutes after a dose of ^3 H-flunitrazepam (^3 H-FNM) (200 μCi/kg, i.v.) the amount of specific ^3 H-FNM binding to brain benzodiazepine receptors has reached its maximal value.
Suspensions of test substances (2 mg/ml) are prepared in 5% Duphasol-X (TM Duphar, castor oil-ethylene oxide derivative for emulsifying and solubilizing oil and other water-insoluble substances) by sonification for 10 min using a Branson B15 microtip ultrasonifier (setting 7). Groups of three mice (female, NMR, 18-22 grams) are injected with the test substance at 100 mg/kg intraperitoneally. Fifteen minutes after test substance administration the mice are challenged with 4 μCi intravenously of ^3 H-FNM (70-90 Ci/mole) in 200 μl physiological saline. Twenty minutes after ^3 H-FNM administration mice are sacrificed by decapitation, the forebrains rapidly excised (within 30 sec) and homogenized in 12 ml of icecold 25 mM KH2 PO4, pH 7.1, using an Ultra-Turrax homogenizer fitted with an N 10 shaft. Two aliquots of 1 ml are immediately filtered through Whatman GF/C glassfibre filters and washed with 2×5 ml of the above mentioned buffer. The amounts of radioactivity on the filters are determined by conventional scintillation counting. One group of untreated mice serves as control. One to three mice are injected with 25 μg/kg clonazepam i.p. 30 minutes before ^3 H-FNM to determine the amount of non-specific ^3 H-FNM binding, which should be between 8-15% of total binding. […]
The ED50 value is determined from dose response curves.

SMILES | ED50 (dose which inhibits 50% of specific 3H-flunitrazepam binding to benzodiazepine receptors in living brain)
CC(C)n1c(=O)c2c(C(=O)CC(=O)C3CC3)ncn2c2ccccc21 [Compound 2, 3-(3-cyclopropyl-1,3-dioxopropyl)-4,5-dihydro-5-isopropyl-4-oxo-imidazo[1,5-a]quinoxaline] | 1.5 mg/kg
CC(=O)CC(=O)c1ncn2c1c(=O)n(C(C)C)c1ccccc12 [Compound 4, 4,5-dihydro-5-isopropyl-4-oxo-3-(1,3-dioxobutyl)-imidazo-[1,5-a]quinoxaline] | 1.4 mg/kg
CC(C)(C)n1c(=O)c2c(C(=O)CC(=O)C3CC3)ncn2c2ccccc21 [Compound 6, 5-tert-butyl-3-(3-cyclopropyl-1,3-dioxopropyl)-4,5-dihydro-4-oxo-imidazo[1,5-a]quinoxaline] | 2.5 mg/kg
